We go through 4 molecules from US20250129090A1, “COMPOSITIONS USEFUL FOR MODULATING SPLICING” (SKYHAWK THERAPEUTICS, INC., priority 2021, published 2025).

One assay deals with total ATXN3 protein. Description: ATXN3 Total Protein Assay. Type of assay: cell-based. To be noted: Human neuroblastoma SK-N-MC cells, incubation 48 hours, MSD assay; read-out: ATXN3 Protein Potency IC50. How it is done: Human neuroblastoma SK-N-MC cells were seeded at 10,000 cells/well in 384 well plates one day prior to compound treatment. The concentrations of compounds were tested at appropriate doses ranging from 30 μM to 0.6 nM. After incubation for 48 hours, the cells were lysed with 25 μL of lysis buffer containing protease inhibitors, and total ATXN3 protein levels were assessed by Mesoscale Discovery (MSD) assay developed with one pair of anti-ATXN3 antibodies. The capture and detect antibodies were raised in mouse and rabbit respectively. Anti-rabbit MSD-ST antibody was used for secondary antibody.
ATXN3 recombinant protein was used for standards. The readouts were captured with 35 μL of MSD read buffer and multi-array 384-well high binding plates.

In assay [1] the test system is exon 4 skipped transcripts of ATXN3. Description: ATXN3 Quantitative Splicing Assay. It counts as cell-based. The conditions noted are these: Human neuroblastoma SK-N-MC cells, treated 24 h, qPCR; read-out: ATXN 3 E4 Skipping EC50. The procedure: Human neuroblastoma SK-N-MC cells were plated in 384-well plates at 20,000 cells/well. Twenty-four hours after plating, cells were treated with compounds for 24 h at appropriate concentrations ranging from 30 µM to 0.6 nM (0.3% DMSO). Treated cells were lysed in 15 μL of lysis buffer, and cDNA was synthesized using the Fast Advanced Cells-to-Ct kit. Two μL of each cDNA was used in qPCR reactions to confirm the exon 4 skipped transcripts of ATXN3. A second set of primers/probe E4E5 was used to detect the transcripts containing exon 4. The third set of primers/probe E8E9 was used to detect total gene level of ATXN3. The qPCR reactions were prepared in 384-well plates in 10 μL volume, using TaqMan™ Fast Advanced Master Mix with primers and probes shown in the table below. Reactions were run in a Quant Studio 6 qPCR instrument with default settings.
The primers and probes are listed below in Table 3.

What is called IC50 is the midpoint of a concentration-inhibition curve. One may read the EC50 as the concentration needed to bring the measured effect to its halfway point. For the molecule `Cc1csc2c(NCc3ccco3)nnnc12` [Compound 3, N-(furan-2-ylmethyl)-7-methylthieno[3,2-d][1,2,3]triazin-4-amine], the IC50 in the assay with total ATXN3 protein was ≥ 10 µM. Also, in assay [1], the EC50 is ≥ 10 µM.

As to `Cc1c(C[C@H](C)N)sc2c(NCc3cccs3)nnnc12` [Compound 2, (S)-6-(2-aminopropyl)-7-methyl-N-(thiophen-2-ylmethyl)thieno[3,2-d][1,2,3]triazin-4-amine], the IC50 with total ATXN3 protein fell in the range of 0.501 to 5 µM. In assay [1], the EC50 lay within 0.501 to 5 µM.

In the case of `Cc1csc2c(NCc3cccs3)nnnc12` [Compound 1, 7-methyl-N-(thiophen-2-ylmethyl)thieno[3,2-d][1,2,3]triazin-4-amine], the IC50 in the assay with total ATXN3 protein was ≥ 10 µM. In addition, in assay [1], the concentration giving a half-maximal response (EC50) was ≥ 10 µM.

For the molecule `Cc1c(C[C@H](C)N)sc2c(NCc3ccco3)nnnc12` [Compound 4, (S)-6-(2-aminopropyl)-N-(furan-2-ylmethyl)-7-methylthieno[3,2-d][1,2,3]triazin-4-amine], the IC50 in the assay on total ATXN3 protein lay in the range of 0.501 to 5 µM. Further, the EC50 in assay [1] was ≥ 10 µM.
